# From PMC9368227, “Investigation of Radiotracer Metabolic Stability In Vitro with CYP-Overexpressing Hepatoma Cell Lines” (Cells, 2022)
# How the values were obtained:
# HepG2 CYP1A2 = experiment: Competitive coincubation of [18F]1 with competitors, HepG2 CYP1A2; settings: 1 h; competitor 1 or 10 µM
# Procedure: (§1) Radio thin-layer chromatography (radio-TLC) was carried out on reversed-phase TLC plates (ALUGRAM RP-18W/UV254 from Macherey-Nagel, Düren, Germany) with a mobile phase of 45% ACN in water containing 0.1% trifluoroacetic acid. The samples (2 µL) were spotted onto the TLC plate. The line of origin and the front line were labeled with 1/5 of the sample activity concentration. To track the Rf value of the intact radiotracer, each TLC was spotted with the intact tracer as reference in the middle. Detection of the activity signals was achieved after 10–30 min development on radioluminographic imaging plates (FUJIFILM, Tokyo, Japan) and subsequent readout with Fuji BAS 5000® or Amersham™ Typhoon™ from GE Healthcare (Uppsala, Sweden). The resulting chromatographic profile was analyzed and integrated with the help of AIDA Image Analysis Software (version 5.1). For data depiction, the fraction of each species (intact radiotracer, metabolite, [^18F]fluoride) was plotted.
# (§2) Incubations were conducted for up to 2 h in a 96-well plate in KHB with a total incubation volume of 50 µL and an ethanol concentration of 0.4%. For the incubation with radiotracers, an activity of 100–200 kBq/well at the start of the experiment was used.
# (§3) Our last interest within this study was to test if the tracer itself could function as an indicator for the conversion of other substrates acting via inhibition of or competition with the CYP enzymes. In this regard, alternative substrates were added to the incubation mixtures with [^18F]1. The investigated substrates covered testosterone, caffeine, progesterone, compound 3, tebufelone, and RWJ63556 [44] (10 µM for all substances). Furthermore, the influence of testosterone on the metabolic turnover of [^18F]1 was investigated over a concentration range of 1–50 µM.
# Figure 7 Coincubation of [^18F]1 and different competitors with (A) HepG2 CYP1A2 and (B) HepG2 CYP2C19. […] Each competitor/inhibitor was incubated with [^18F]1 for 1 h followed by radio-TLC analysis. Activity concentrations of 94–197 kBq/well (1.9–3.9 MBq/mL) were used at start of experiment, which correspond to a concentration of 120–125 nM. Statistical analysis performed with Dunnett’s multiple comparison (post hoc test) according to the intact tracer amount (* p < 0.05; *** p < 0.001; **** p < 0.0001; n = 4).
# HepG2 CYP2C19 = experiment: Competitive coincubation of [18F]1 with competitors, HepG2 CYP2C19; settings: 1 h, competitor 10 µM
# Procedure: as §1, §2, §3
# Figure 7 Coincubation of [^18F]1 and different competitors with (A) HepG2 CYP1A2 and (B) HepG2 CYP2C19. […] Each competitor/inhibitor was incubated with [^18F]1 for 1 h followed by radio-TLC analysis. […]
# HepG2 cells = experiment: Testosterone control incubation (conversion to androstenedione), LC-MS/MS; settings: 2.5 µM testosterone; within 2 h; 3 × 10^5 cells/well in 96-well plate
# Procedure: Testosterone (SIGMA-ALDRICH, Taufkirchen, Germany) was dissolved in pure ethanol. Control incubations with testosterone were carried out for 2 h with 2.5 µM testosterone, 0.05% ethanol, and a total volume of 150 µL in the cavities of a 96-well plate. The supernatant was prepared and analyzed by UPLC–MS/MS (System 2; 45% isocratic elution). Testosterone was monitored at transitions for [M + H]^+ 289.24 > 97.08 and 289.24 > 109.05 with cone voltage 52 V and collision energy 20 V, while the CYP-mediated metabolite androstenedione was monitored at transitions for [M + H]^+ 287.22 > 97.08 (collision energy 18 V) and 287.22 > 109.05 (collision energy 20 V) with a cone voltage of 50 V each.
SMILES,Effect of coincubation on metabolic profile / intact [18F]1 (in words) (HepG2 CYP1A2),Increase of intact tracer [18F]1 versus incubation without additional substances (HepG2 CYP2C19),Effect of coincubation on intact [18F]1 amount (in words) (HepG2 CYP2C19; testosterone 1–50 µM),Testosterone consumed (HepG2 cells)
Cn1c(=O)c2c(ncn2C)n(C)c1=O [caffeine],no change in the metabolic profile,,,
Cc1ccc(-c2cc(CCF)nn2-c2ccc(S(C)(=O)=O)cc2)cc1 [compound 3],slightly increased the intact tracer amount,,,
CC(=O)[C@H]1CC[C@H]2[C@@H]3CCC4=CC(=O)CC[C@]4(C)[C@H]3CC[C@]12C [progesterone],no change in the metabolic profile,twofold,,
C[C@]12CC[C@H]3[C@@H](CCC4=CC(=O)CC[C@@]43C)[C@@H]1CC[C@@H]2O [testosterone],no change in the metabolic profile,,slight increase in the amount of intact radiotracer,more than 50%
